Values belong to the compound of their own block, whether it stands above or below them.
Tests used:
[1] = Inhibition of chymotrypsin-like activity of rabbit 20S proteasome using Suc-LLVY-AMC as substrate after 2 hrs by fluorescence assay; parameters: species or system Oryctolagus cuniculus
[2] = target: T1, Proteasome Macropain subunit MB1 (Homo sapiens, UniProt P28074); assay: Inhibition of chymotrypsin-like activity of human erythrocyte-derived 20S proteasome using Suc-LLVY-AMC as substrate preincubated for 10 mins followed by substrate addition measured every 15 secs for 30 mins by fluorescence assay
T1 sequence (P28074 whole entry): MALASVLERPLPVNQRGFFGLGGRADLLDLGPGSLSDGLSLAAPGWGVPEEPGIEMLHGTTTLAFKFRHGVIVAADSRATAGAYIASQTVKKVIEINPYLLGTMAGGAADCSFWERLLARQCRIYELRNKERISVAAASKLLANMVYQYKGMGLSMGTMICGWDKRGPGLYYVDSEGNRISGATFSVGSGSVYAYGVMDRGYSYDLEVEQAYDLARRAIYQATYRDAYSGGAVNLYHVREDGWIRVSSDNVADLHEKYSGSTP

[3] = Inhibition of proteasome (unknown origin); parameters: species or system Homo sapiens

IC50 [1]: 210 nM
SMILES: CC[C@H](C)[C@@H]1C(=O)O[C@H]1C(=O)NCCC[C@H](NC(=O)[C@H](C)N)C(=O)O [BELACTOSIN C]

IC50 [2]: 360 nM
SMILES: CC[C@H](C)[C@H](NC(=O)[C@@H](NC(=O)C1OC(=O)C1C(C)C)C(C)C)C(=O)O (stereo not given in full)

IC50 [3]: 5 nM
SMILES: CC(C)C[C@H](NC(=O)[C@H](CCc1ccccc1)NC(=O)CN1CCOCC1)C(=O)N[C@@H](Cc1ccccc1)C(=O)N[C@@H](CC(C)C)C(=O)[C@@]1(C)CO1 [CARFILZOMIB]

SMILES: CC[C@H](C)[C@@H]1C(=O)O[C@H]1C(=O)N[C@H]1C[C@H]1C[C@H](NC(=O)[C@H](C)N)C(=O)O [BELACTOSIN A]
IC50 [1]: 210 nM

Ki [3]: 0.6 nM
SMILES: CC(C)C[C@H](NC(=O)[C@H](Cc1ccccc1)NC(=O)c1cnccn1)B(O)O [BORTEZOMIB]
